This is an account of results in PubChem BioAssay (NCI).

Some test systems named below: CCRF-CEM leukemia; A549 NSCLC; MDA-MB-435; MOLT-4 leukemia; PC-3 prostate; CAKI-1 renal; K-562 leukemia; UO-31 renal; EKVX NSCLC; MCF7 breast.
Assay in all cases: NCI-60 cell line screen, 48 h

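Step 1: Grow cells in 96-well plates. Step 2: Expose to compound for 48 hours at 5 concentrations. Step 3: Interpolate endpoints linearly; if unreached, use highest concentration. GI50: concentration for 50% inhibition of growth. TGI is the concentration that stops growth completely.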

In the case of `Nc1ccc(-n2c(=O)oc3ccc(Cl)cc3c2=O)c(Cl)c1`, the GI50 was 0.139 µM with CCRF-CEM leukemia; 0.234 µM in the assay on A549 NSCLC; 0.113 µM with MDA-MB-435; 0.368 µM in the assay with MOLT-4 leukemia; 0.264 µM in the assay on PC-3 prostate; 0.077 µM in the assay with CAKI-1 renal. In addition, the GI50 is 0.108 µM in the assay on K-562 leukemia, 0.0872 µM in the assay with UO-31 renal, 0.213 µM in the assay with EKVX NSCLC and 0.262 µM with MCF7 breast. Besides, the TGI was 1.56 µM in the assay on CCRF-CEM leukemia; > 38.7 µM in the assay with A549 NSCLC; 0.883 µM with MDA-MB-435; 2.32 µM with MOLT-4 leukemia; 9.59 µM in the assay on PC-3 prostate; 0.479 µM in the assay on CAKI-1 renal. In addition, the TGI in the assay on K-562 leukemia is > 100 µM; with UO-31 renal, 0.533 µM; in the assay on EKVX NSCLC it was > 56.3 µM; in the assay on MCF7 breast, > 31.8 µM.
On to `CCOC(=O)C(C)c1nc2cc(N3CCN(C)CC3)c(F)cc2[nH]c1=O` (stereo not drawn), for which the TGI in the assay with CCRF-CEM leukemia, with A549 NSCLC, in the assay on MDA-MB-435, in the assay on MOLT-4 leukemia, in the assay on PC-3 prostate and in the assay with CAKI-1 renal was > 100 µM in each case. Moreover, the TGI in the assay with K-562 leukemia, in the assay on UO-31 renal, in the assay with EKVX NSCLC and in the assay with MCF7 breast was > 100 µM each time.
`Nc1c(S(=O)(=O)O)cc(Nc2cccc(S(=O)(=O)/C=C/S(=O)(=O)O)c2)c2c1C(=O)c1ccccc1C2=O`: the TGI in the assay with CCRF-CEM leukemia, in the assay on A549 NSCLC, with MDA-MB-435, in the assay with MOLT-4 leukemia, in the assay with PC-3 prostate and in the assay on CAKI-1 renal was > 100 µM throughout. Further, the TGI in the assay with K-562 leukemia, in the assay with EKVX NSCLC and in the assay with MCF7 breast was > 100 µM each time.
In the case of `COc1ccc(/C=N/n2c(Cc3ccc(Cl)cc3)n[nH]c2=O)c(OC)c1`, the TGI in the assay with CCRF-CEM leukemia, with A549 NSCLC, in the assay on MDA-MB-435, in the assay on MOLT-4 leukemia, with PC-3 prostate and with CAKI-1 renal was > 100 µM in each case. Moreover, the TGI with K-562 leukemia, with UO-31 renal, in the assay with EKVX NSCLC and in the assay on MCF7 breast was > 100 µM throughout.
For `CCOc1cc(C2SCC(=O)N2c2nc3cc4sc(N5C(=O)CSC5c5ccc(O)c(OCC)c5)nc4cc3s2)ccc1O` (stereo not drawn), the TGI with CCRF-CEM leukemia is > 84.2 µM; in the assay with A549 NSCLC it was > 100 µM; in the assay on MDA-MB-435, > 100 µM; in the assay with MOLT-4 leukemia, > 100 µM; in the assay on PC-3 prostate it was > 100 µM; in the assay with CAKI-1 renal, > 100 µM. Also, the TGI in the assay with K-562 leukemia is > 100 µM; in the assay on UO-31 renal, > 100 µM; in the assay with EKVX NSCLC, > 100 µM; in the assay on MCF7 breast, > 86.3 µM.
As to `O=C1C(N=Nc2ccc(-c3nc4ccccc4[nH]3)cc2)NC(=S)N1c1ccccc1` (stereo not drawn), the TGI in the assay with CCRF-CEM leukemia was 56 µM; with A549 NSCLC it was > 100 µM; with MDA-MB-435 it was > 100 µM; with MOLT-4 leukemia it was 48.8 µM; in the assay on PC-3 prostate it was > 100 µM; in the assay on CAKI-1 renal, > 100 µM. In addition, the TGI in the assay with K-562 leukemia is 35.8 µM; with UO-31 renal it was > 100 µM; with EKVX NSCLC it was > 100 µM; in the assay on MCF7 breast it was 24.8 µM.
On to `CC(C)(C)c1cc(C2COC(=O)COCC(=O)OCCOCCOCCO2)cc(C(C)(C)C)c1O` (stereo not drawn), for which the TGI with CCRF-CEM leukemia was > 100 µM; in the assay with A549 NSCLC it was > 31.6 µM; in the assay on MDA-MB-435, 43 µM; in the assay with MOLT-4 leukemia it was > 100 µM; in the assay on PC-3 prostate, > 100 µM; in the assay on CAKI-1 renal, 51.3 µM. The TGI with K-562 leukemia was > 100 µM; in the assay on UO-31 renal, 35.7 µM; in the assay with EKVX NSCLC, > 100 µM; in the assay on MCF7 breast, > 100 µM.
With `Cc1ccc2nc(Cl)c(/C=N/N3C(=O)/C(=C/c4ccc(N(C)C)cc4)N=C3c3ccccc3)cc2c1`, the TGI was > 100 µM in the assay with CCRF-CEM leukemia; > 100 µM with A549 NSCLC; 65.8 µM in the assay with MDA-MB-435; 68.5 µM with MOLT-4 leukemia; > 100 µM with PC-3 prostate; > 100 µM with CAKI-1 renal. Also, the TGI in the assay with K-562 leukemia, in the assay on UO-31 renal, in the assay on EKVX NSCLC and in the assay with MCF7 breast was > 100 µM in each case.
Take `CCOC(=O)N(C)C1(c2ccccc2)CCN(CCCC(=O)c2ccc(F)cc2)CC1`: the TGI in the assay on CCRF-CEM leukemia was > 100 µM; in the assay with A549 NSCLC it was > 100 µM; with MDA-MB-435 it was 53.6 µM; in the assay with MOLT-4 leukemia, > 100 µM; with PC-3 prostate it was > 100 µM; in the assay on CAKI-1 renal, > 100 µM. The TGI is 72.7 µM in the assay on K-562 leukemia, > 100 µM in the assay on EKVX NSCLC and 85.2 µM in the assay with MCF7 breast.
For `CN(C)CCn1c(=O)c2ccc3c4c(nn3CCN(C)C)c3ccccc3n(c1=O)c24`, the TGI with CCRF-CEM leukemia worked out at 10.9 µM; in the assay with A549 NSCLC, 4.38 µM; in the assay on MDA-MB-435 it was 1.39 µM; with MOLT-4 leukemia, 0.0581 µM; with PC-3 prostate it was 3.21 µM; in the assay with CAKI-1 renal, 0.52 µM. Moreover, the TGI worked out at 2.49 µM with K-562 leukemia, 2.42 µM in the assay on UO-31 renal, 0.112 µM in the assay on EKVX NSCLC and 1.05 µM in the assay with MCF7 breast.
On to `CS(=O)(=O)O.[Ag]`, for which the TGI is 6.64 µM in the assay with CCRF-CEM leukemia; 33.8 µM with A549 NSCLC; 9.78 µM in the assay on MDA-MB-435; 5.3 µM in the assay with MOLT-4 leukemia; 27.2 µM in the assay with PC-3 prostate; 34.2 µM in the assay on CAKI-1 renal. The TGI with K-562 leukemia was determined as 4.96 µM; in the assay on UO-31 renal, 3.52 µM; in the assay on EKVX NSCLC, 38.4 µM; in the assay on MCF7 breast, 24.8 µM.
With `CC(=O)OCC1OC(c2nnc(C)o2)=CC(OC(C)=O)C1OC(C)=O` (stereo not drawn), the TGI with CCRF-CEM leukemia, in the assay on A549 NSCLC, with MDA-MB-435, in the assay on MOLT-4 leukemia, in the assay with PC-3 prostate and in the assay on CAKI-1 renal was > 100 µM throughout. The TGI in the assay on K-562 leukemia, in the assay with UO-31 renal, in the assay with EKVX NSCLC and in the assay on MCF7 breast was > 100 µM each time.
